In patent US4162325A, “N-substituted lactams” (UCB, Societe Anonyme, priority 1976, dated 1979):
Several values for one entry are separate records, joined by “and”; a condition that tells them apart may be missing. Equal entries are not always repeated.

Columns and labels:
[1] = system: rats; experiment: active avoidance test, memory retention (paw pressure withdrawal) in rats; format: in vivo, rat; conditions: Rattus norvegicus, sc, 24 h, read-out: Active dose (minimum dose which reduces the stimulus to below 11 graduations)
Text: (A) The action on mnemic processes is first shown by the ability of the compounds to improve a type of memory retention in rats. The principle of the active avoidance test (see M. GREINDL and S. PREAT, Arch. Int. Pharmacodyn. Therap. 223,(1976),(1),168-171) developed in our laboratories and used for this purpose may be described as follows: the reaction of withdrawal of a rat's paw when subjected to an increasing and measured pressure is observed. The pressure at which the withdrawal reaction takes place is called the reaction threshold. This threshold is expressed by the number of graduations of the scale of the apparatus used (Analgesy meter UGO BASILE - Milano) and thus corresponds to the minimum pressure which brings about withdrawal when applied to the animal's paw. It is read directly from the scale of the apparatus used.
Inversely, animals treated with a substance having a positive effect on the mnemic processes (for example, piracetam) show a significant degree of retention: the stimulus at which the rats react by a reflex of avoidance is statistically lower than that of the control animals. A minimum of 20 rats are used per test (10 treated rats and 10 control rats) and the active dose is defined as the minimum dose which reduces the stimulus to below 11 graduations.
Subcutaneous administration of compounds of general formula (I), namely compounds A, G, H, I, J, K, L, N, O, P, Q, R, V, W, give, under these conditions, the effects indicated in Table I below.

[2] = system: mice; experiment: protection against aggressions of the hypoxic type (lethality induced by oxydipentonium chloride) in mice; format: in vivo; conditions: ip, 1 h, mouse, intraperitoneal, one hour before curarizer, read-out: Proportion of survivors, treated animals
Experimental: Protection against aggressions of the hypoxic type is shown by a reduction of the lethality induced by a curarizer, the duration of action of which is short, namely oxydipentonium chloride (Brevatonal). At the doses used, this curarizer brings about a respiratory depression which, in turn, brings about a hypoxi-hypercapnic syndrome. A compound capable of protecting the brain during this brief period of hypoxia ensures survival. The compounds are administered to groups of 10 mice one hour before the injection of the curarizer; in a parallel test, a control group of 10 mice are given physiological salt solution before the curarizer. This test has also been developed in our laboratories (see, for the principle of this test, S. LEVIS et al.; Arch. Int. Pharmacodyn. Therap, 93,(1953),1,46-54).
Intraperitoneal administration of compounds of general formula (I), namely, products A, B, F, G, H, I, J, K, L, gives the results shown in Table III: […]

[3] = system: rat; conditions: 30 mg/kg (0.2 mM/kg), Giurgea et al., loc.cit.; cited from earlier work

In the case of `NC(=O)CN1CCCC1=O` [Piracetam, 2-oxo-1-pyrrolidineacetamide, reference compound], the minimal effective dose [1] is reported as 3.5 mg/kg and 25 µmol/kg, the responders at 320 µM, 45 mg/kg ([2]; 0.32 mM/kg (A 64, I 95, J 68, Piracetam 45 mg/kg), control 1/10, Piracetam 0/10) is reported as 10% and the responders at 1000 µM, 142 mg/kg ([2]; 1.0 mM/kg (Piracetam 142 mg/kg), control 2/10) is reported as 40%. For the same molecule, the responders at 3200 µM, 454 mg/kg ([2]; 3.2 mM/kg (Piracetam 454 mg/kg), control 1/10) was 80% and the “Number of animals which responded positively / number tested” value [3] was 4/9.
